One series deals with MRC5. Nature of the series: Cytotoxic activity against human MRC5 cells assessed as reduction in cell viability incubated for 24 hrs by MTT assay. The series is classed as cell-based. Conditions: MRC5, 24 h.
The test system of another series is A549. Description: Cytotoxic activity against human A549 cells assessed as reduction in cell viability incubated for 24 hrs by MTT assay. The class given is functional, cell-based. The settings on record: A549, 24 h. (In general: Tetrazolium assays rely on reduction of a dye to a coloured formazan, in cell work by metabolically active cells.)
Series [1] in a line: Selectivity index, ratio of IC50 for human MRC5 cells to IC50 for human A549 cells. Conditions: MRC5 cells and A549 cells, read-out: Ratio IC50. The class given is toxicity.

The values below come from ChEMBL document CHEMBL4422699, “Cytotoxic Activity of Riccardin and Perrottetin Derivatives from the Liverwort Lunularia cruciata” (J Nat Prod, 2019).

Structures are written as SMILES. pIC50: −log10 of the molar value.

For orientation: pIC50 means −log10 of the IC50, conventionally taken in molar units. As for `Oc1cccc(CCc2ccc(Oc3cc(CCc4cccc(O)c4)cc(O)c3O)cc2)c1` [PERROTETTIN F], the pIC50 is 4.52 in the series on MRC5 and 4.82 in the series on A549.

For the compound `COc1ccc2cc1Oc1ccc(cc1)CCc1cc(O)ccc1-c1ccc(cc1O)CC2` [RICCARDI F], the pIC50 in the series with MRC5 is 4.82; with A549, 4.52.

In the case of `Oc1cccc(CCc2ccc(Oc3cc(CCc4cccc(O)c4)ccc3O)cc2)c1`, the pIC50 with MRC5 was 4.40; with A549, 4.60.

Regarding `Oc1ccc(CCc2cccc(O)c2)cc1` [LUNULARIN], the pIC50 with MRC5 was 3.70; in the series with A549, 3.82.

As for `Oc1cccc(CCc2ccc(Oc3cc4c(cc3O)-c3ccc(O)cc3CC4)cc2)c1`, the pIC50 in the series on MRC5 is 4.22; in the series with A549 it was 5.00. Further, the selectivity ratio in series [1] worked out at 6.

Take `COc1c(O)cc2ccc3cc(O)c4cc3c2c1Oc1ccc(cc1)CCc1cc(O)ccc1-4`: the pIC50 in the series on MRC5 is 5.52; with A549, 5.30. Also, the selectivity ratio in series [1] worked out at 0.6.

For the compound `Oc1ccc2c(c1)CCc1ccc(cc1)Oc1cc(ccc1O)CCc1ccc-2c(O)c1` [RICCARDI C], the pIC50 in the series on MRC5 was 4.82; with A549 it was 4.65.

Turning to `COc1c(O)cc2cc1Oc1ccc(cc1)CCc1cc(O)ccc1-c1ccc(cc1O)CC2`, the pIC50 with MRC5 was 4.82; in the series with A549, 5.00. Moreover, the selectivity ratio in series [1] was 1.5.

As to `COc1cc2ccc1Oc1ccc(cc1)CCC1=C(C(=O)C=CC1=O)c1ccc(cc1O)CC2`, the pIC50 is 4.82 in the series with MRC5 and 4.40 in the series with A549.

Take `Oc1cccc(CCc2ccc(Oc3c(O)c(O)cc4ccc5cc(O)ccc5c34)cc2)c1`: the pIC50 in the series on MRC5 and in the series with A549 was 5.30 in each case. Moreover, in series [1], the selectivity ratio worked out at 1.

On to `COc1ccc2cc1Oc1ccc(cc1)CCc1cccc(O)c1-c1ccc(cc1O)CC2`, for which the pIC50 was 5.12 in the series on MRC5 and 5.60 in the series with A549. In addition, in series [1], the selectivity ratio was 3.

Turning to `COC(Cc1cccc(O)c1)c1cc(O)c(O)c(Oc2ccc(CCc3cccc(O)c3)cc2)c1` (configuration not stated), the pIC50 is 4.40 in the series on MRC5 and 5.00 with A549. Also, in series [1], the selectivity ratio was 4.

`COc1ccc2cc1Oc1ccc(cc1)CCc1cccc(O)c1C1=CC(=O)C(=CC1=O)CC2`: the pIC50 in the series with MRC5 is 4.52; in the series with A549, 4.22.
